Experimental data as given in US9820972B2, “Antiviral compounds highly effective as HCV-NS5A inhibitor” (priority 2013, dated 2017).
Where two headings read alike, the source gives them in different places.

What was measured:
GT-1a of NS5A Replicon = assay: HCV double reporter gene (Renilla luciferase) replicon assay, GT-1a; type: cell-based, Hepatitis C virus (HCV); details: Hepatitis C virus
In short: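 Replication measured in a double-reporter HCV replicon cell system by Renilla luciferase signal. EC50 from 8-point 2-fold dilutions, triplicate wells, three repeats, with 1 or 2 control drugs.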

HCV NS5A Replicon GT-1b = assay: HCV double reporter gene replicon assay, GT-1b; type: cell-based; details: Hepatitis C virus, genotype 1a / genotype 1b / genotype 6a; GT-1b replicon
Description: (§1) Antiviral Assay for Inhibition Activity (EC50):
(§2) The study is completed by a new constructed double reporter genes replicon assay system, the capacity of viral replicon in infected cell is determined by detecting the reporter gene Renilla luciferase. The relationship of reporter genes, HCV RNA replicon and viral proteins is well linear. 8 gradient concentrations for 2-fold dilution, 3 wells, 3 times repetition and 1 or 2 control drugs are set to finally determine EC50 of compound.
(§3) THF was distilled from sodium metal and benzophenone. DCM, pentane and hexane were distilled form calcium hydride. Special raw material and intermediate in the invention were ordered by contract synthesis from Zannan SciTech Co., Let in China, others reagents were purchased from Shanghai reagent company, Aldrich, Acros etc. As intermediates or products during the synthesis is not required for the reaction and other tests the next step, the synthesis is repeated until a sufficient number of times. The invention of the prepared compounds of […] (HCV NS5A) inhibitory activity test was performed by CRO service units such as WuXi AppTec etc.

HCV NS5A Replicon GT-2a = assay: HCV double reporter gene replicon assay, GT-2a; type: cell-based; details: Hepatitis C virus, genotype 1a / genotype 2a / genotype 6a; GT-2a replicon
Description: as §1, §2, §3

HCV NS5A Replicon GT-3a = assay: HCV double reporter gene replicon assay, GT-3a; type: cell-based; details: Hepatitis C virus, genotype 1a / genotype 3a / genotype 6a; GT-3a replicon
Description: as §1, §2, §3

HCV NS5A Replicon GT-4a = assay: HCV double reporter gene replicon assay, GT-4a; type: cell-based; details: Hepatitis C virus, genotype 1a / genotype 4a / genotype 6a; GT-4a replicon
Description: as §1, §2, §3

HCV NS5A Replicon GT-5a = assay: HCV double reporter gene replicon assay, GT-5a; type: cell-based; details: Hepatitis C virus, genotype 1a / genotype 5a / genotype 6a; GT-5a replicon
Description: as §1, §2, §3

HCV NS5A Replicon GT-6a = assay: HCV double reporter gene replicon assay, GT-6a; type: cell-based; details: Hepatitis C virus, genotype 1a / genotype 6a; GT-6a replicon
Description: as §1, §2, §3

[1] = Acute Toxicity Study (MTD); type: in vivo, rats and mice; details: rats or mice, fed once, oral dose 10000 mg/kg, observed for a week
Description: Acute Toxicity Study (MTD):
Materials and Methods for MTD Study are as follows:
Animals were fed freely for adaptation more than 1 week. Healthy rats, body weight between 170-190 g, were divided randomly into 3 groups, 5 male and 5 female in each group. Healthy mice, body weight between 18-22 g, were divided randomly into 22 groups, 5 male and 5 female in each group.
In rats, the compound weighing 21.00 g, serial number 1-3 respectively, adding 0.7% sodium carboxymethyl cellulose solution 30.00 g, high-speed homogenizer machine 15000 RPM, 10 min mixing, the rats were fed once, oral dose 10000 mg/kg. In mice, the compound weighing 2.00 g, serial number 4-25 respectively, adding 0.7% sodium carboxymethyl cellulose solution 8.00 g, high-speed homogenizer machine 10000 RPM, 10 min mixing, the mice were fed once, oral dose 10000 mg/kg.
Animals were observed every hour after administration in the first day, and behavior observation daily continuous for a week. Dead animals were necropsied, gross pathology of the organs were observed and recorded.
Toxicity was evaluated by animal mortality, signs of clinical behavior and others.

[2] = GT1A, GT-1a replicon, class symbols, read-out: EC50 For GT-1a of NS5A Replicon
[3] = genotype 1a / genotype 6a, read-out: EC50 for Replicon (pM) of GT-1a to GT-6a: 1a

COC(=O)N[C@@H](C(=O)N1CC=CC1c1nc(-c2ccc(-c3cc4sc(-c5c[nH]c(C6CCCN6C(=O)[C@H](NC(=O)OC)c6ccccc6)n5)cc4s3)cc2)c[nH]1)c1ccccc1 (stereo partly drawn) [Compound 6fd]
EC50 (GT-1a of NS5A Replicon; [2]): 1 to 999 pM | EC50 (GT-1a of NS5A Replicon; [3]): 21 pM | EC50 (HCV NS5A Replicon GT-1b): 11 pM | EC50 (HCV NS5A Replicon GT-2a): 5 pM | EC50 (HCV NS5A Replicon GT-3a): 15 pM | EC50 (HCV NS5A Replicon GT-4a): 8 pM | EC50 (HCV NS5A Replicon GT-5a): 23 pM | EC50 (HCV NS5A Replicon GT-6a): 111 pM | MTD results: test-article related death and adverse events [1]: no any test-article related death and no any adverse events observed

COC(=O)N[C@@H](C(=O)N1CC=CC1c1nc(-c2ccc(-c3ccc(-c4c[nH]c(C5CCCN5C(=O)[C@H](NC(=O)OC)c5ccccc5)n4)cc3)cc2)c[nH]1)c1ccccc1 (stereo partly drawn) [Compound 6bz]
EC50 (GT-1a of NS5A Replicon; [2]): 1 to 999 pM | MTD results: test-article related death and adverse events [1]: no any test-article related death and no any adverse events observed

COC(=O)N[C@H](C(=O)N1CC=C[C@H]1c1ncc(-c2cc3sc(-c4ccc(-c5cnc([C@@H]6CCCN6C(=O)[C@H](NC(=O)OC)c6ccccc6)[nH]5)cc4)cc3s2)[nH]1)C(C)C [Compound 6fp]
EC50 (GT-1a of NS5A Replicon; [2]): 1 to 999 pM | MTD results: test-article related death and adverse events [1]: no any test-article related death and no any adverse events observed

COC(=O)N[C@H](C(=O)N1CCC[C@H]1c1nc(-c2ccc(-c3ccc(-c4cnc([C@@H]5C=CCN5C(=O)[C@H](NC(=O)OC)c5ccccc5)[nH]4)cc3)cc2)c[nH]1)C(C)C [Compound 6dy]
EC50 (GT-1a of NS5A Replicon; [3]): 11 pM | EC50 (HCV NS5A Replicon GT-1b): 14 pM | EC50 (HCV NS5A Replicon GT-2a): 6 pM | EC50 (HCV NS5A Replicon GT-6a): 24 pM

COC(=O)N[C@H](C(=O)N1CC=C[C@H]1c1ncc(-c2ccc(-c3ccc(-c4c[nH]c([C@@H]5CCCN5C(=O)[C@@H](NC(=O)OC)C(C)C)n4)cc3)cc2)[nH]1)C(C)C [Compound 6ba]
EC50 (GT-1a of NS5A Replicon; [3]): 39 pM | EC50 (HCV NS5A Replicon GT-1b): 12 pM | EC50 (HCV NS5A Replicon GT-2a): 16 pM | EC50 (HCV NS5A Replicon GT-6a): 221 pM | MTD results: test-article related death and adverse events [1]: no any test-article related death and no any adverse events observed

COC(=O)N[C@H](C(=O)N1CC=C[C@H]1c1ncc(-c2ccc(-c3cc4sc(-c5cnc([C@@H]6CCCN6C(=O)[C@H](NC(=O)OC)c6ccccc6)[nH]5)cc4s3)cc2)[nH]1)C(C)C [Compound 6fi]
EC50 (GT-1a of NS5A Replicon; [3]): 20 pM | EC50 (HCV NS5A Replicon GT-1b): 5 pM | EC50 (HCV NS5A Replicon GT-2a): 7 pM | EC50 (HCV NS5A Replicon GT-6a): 55 pM | MTD results: test-article related death and adverse events [1]: no any test-article related death and no any adverse events observed

COC(=O)N[C@H](C(=O)N1CC=C[C@H]1c1ncc(-c2ccc(-c3cc4sc(-c5cnc([C@@H]6CCCN6C(=O)[C@@H](NC(=O)OC)C(C)C)[nH]5)cc4s3)cc2)[nH]1)C(C)C [Compound 6fg]
EC50 (GT-1a of NS5A Replicon; [2]): 1 to 999 pM | MTD results: test-article related death and adverse events [1]: no any test-article related death and no any adverse events observed

COC(=O)N[C@H](C(=O)N1CCC[C@H]1c1nc(-c2ccc(-c3ccc(-c4c[nH]c([C@@H]5CCCN5C(=O)[C@@H](NC(=O)OC)C(C)C)n4)cc3)cc2)c[nH]1)C(C)C [Ref-1, reference compound]
EC50 (GT-1a of NS5A Replicon; [3]): 52 pM | EC50 (HCV NS5A Replicon GT-1b): 21 pM | EC50 (HCV NS5A Replicon GT-2a): 29 pM | EC50 (HCV NS5A Replicon GT-6a): 118 pM

COC(=O)N[C@H](C(=O)N1CCCC1c1nc(-c2ccc(-c3ccc(-c4c[nH]c(C5C=CCN5C(=O)[C@H](NC(=O)OC)c5ccccc5)n4)cc3)cc2)c[nH]1)C(C)C (stereo partly drawn) [Compound 6bx]
EC50 (GT-1a of NS5A Replicon; [2]): 1 to 999 pM | MTD results: test-article related death and adverse events [1]: no any test-article related death and no any adverse events observed

COC(=O)N[C@H](C(=O)N1CC=CC1c1nc(-c2ccc(-c3ccc(-c4c[nH]c(C5CCCN5C(=O)[C@H](NC(=O)OC)c5ccccc5)n4)cc3)cc2)c[nH]1)C(C)C (stereo partly drawn) [Compound 6by]
EC50 (GT-1a of NS5A Replicon; [2]): 1 to 999 pM | MTD results: test-article related death and adverse events [1]: no any test-article related death and no any adverse events observed

COC(=O)N[C@H](C(=O)N1CCC[C@H]1c1ncc(-c2ccc(-c3cc4sc(-c5cnc([C@@H]6C=CCN6C(=O)[C@H](NC(=O)OC)c6ccccc6)[nH]5)cc4s3)cc2)[nH]1)C(C)C [Compound 6fm]
EC50 (GT-1a of NS5A Replicon; [3]): 9 pM | EC50 (HCV NS5A Replicon GT-1b): 13 pM | EC50 (HCV NS5A Replicon GT-2a): 8 pM | EC50 (HCV NS5A Replicon GT-6a): 23 pM | MTD results: test-article related death and adverse events [1]: no any test-article related death and no any adverse events observed
